Laboratory results as given in US8808737B2 (Endo Pharmaceuticals Inc., priority 2007, dated 2014).

Experiments:
[1] = Example 5: plasma pharmacokinetics of oxymorphone and metabolites after EN3202 in renal impairment vs healthy controls; details: for Mean bioavailability ratio (90% confidence interval) for AUC relative to controls / Mean bioavailability ratio (90% confidence interval) for Cmax relative to controls: ln-transformed; for AUC in plasma (mean, untransformed) / AUCT in plasma (mean, untransformed) / Cmax in plasma (mean, untransformed) / Ke, terminal elimination rate constant in plasma (mean) / Tmax in plasma (median) / t½, terminal elimination half-life in plasma (mean): single 20 mg dose of EN3202
Method: (§1) Attempts were made to match controls with the renal impaired patients with respect to age, gender, and weight. […] Naltrexone (50 mg) was administered on the evening prior to administration of the EN3202 dose.
In order to protect the subjects from potential opioid-related adverse events, a single 50-mg dose of the opioid antagonist ReVia® (naltrexone HCl) was administered at 20:00 the evening prior to administration of test medication. […] Subjects continued fasting until four (4) hours after dose administration. The subjects remained in an upright posture (sitting or standing) for 1 hour after dose administration. All doses were administered with 240 mL of water (room temperature), and the subjects were instructed to drink all the water.
(§2) Plasma and urine pharmacokinetic variables were calculated from the concentration data using standard, non-compartmental methods as outlined in the following table.
All pharmacokinetic results are summarized using appropriate descriptive statistics. Continuous variables were compared between renally impaired and control groups using appropriate parametric statistics. 90% confidence intervals were calculated for the differences or ratios between the renally impaired and control groups. In addition, the association between oral clearance (and other pharmacokinetic variables) and the severity of renal insufficiency (based on creatinine clearance) was explored.

[2] = Example 5: urinary excretion of oxymorphone and metabolites after EN3202 in renal impairment; details: for Mean percentage of the administered dose excreted in the urine / Mean urinary elimination half-life: EN3202 20 mg; for Mean percentage of the administered dose excreted in the urine: 0-120 hours; for Mean (SD) Ratio of Metabolite/Parent Excreted in Urine: parent = oxymorphone; for Mean (SD) Percent of Dose Recovered in Urine (0-120 hours): single oral 20-mg dose of EN3202
Method: as §1
Each subject was to be instructed to void at the end of each interval (so that each collection interval began with an empty bladder). The void prior to administration of the test medication (time 0) served as the pre-dose blank and was not be included in the collection container.
as §2

[3] = Example 5: correlation of oxymorphone and metabolite plasma AUC / oral clearance with creatinine clearance; format: in vivo, human; details: linear regression; for AUC/wt vs. CLCR: R-square / AUC/wt vs. CLCR: Slope: AUC normalized for body weight vs creatinine clearance; for AUC vs. CLCR: R-square / AUC vs. CLCR: Slope: plasma AUC vs creatinine clearance
Description: Creatinine clearance (ClCR) was estimated at screening using the following Cockroft and Gault^8 equation: […]
All pharmacokinetic results are summarized using appropriate descriptive statistics.
The potential association between plasma AUC and creatinine clearance was explored using linear regression techniques and the results are summarized in Table 36 and FIG. 16.

[4] = Pain levels (VAS, categorical scale) vs plasma oxymorphone and 6-hydroxyoxymorphone after a single dose; format: in vivo, human; details: single dose of oxymorphone, FIGS. 1-4
Method: For these tests, pain was measured using a Visual Analog Scale (VAS) or a Categorical Scale. The VAS scales consisted of a horizontal line, 100 mm in length. The left-hand end of the scale (0 mm) was marked with the descriptor “No Pain” and the right-hand end of the scale (100 mm) was marked with the descriptor “Extreme Pain”. Patients indicated their level of pain by making a vertical mark on the line. The VAS score was equal to the distance (in mm) from the left-hand end of the scale to the patient's mark. For the categorical scale, patients completed the following statement, “My pain at this time is” using the scale None=0, Mild=1, Moderate=2, or Severe=3.

[5] = EN3202 20 mg, mild renal impairment
[6] = EN3202 20 mg, moderate renal impairment
[7] = EN3202 20 mg, severe renal impairment
[8] = subjects with mild renal impairment
[9] = subjects with moderate renal impairment
[10] = subjects with severe renal impairment
[11] = Healthy Controls, listed as oxymorphone-3-glucuronide
[12] = Severe Impairment, listed as oxymorphone-3-glucuronide

## CN1CC[C@]23c4c5ccc(O)c4O[C@H]2C(O)CC[C@@]3(O)[C@H]1C5 (some centres unmarked) [6-OH-oxymorphone, 6-hydroxy oxymorphone]
[1]; [5]
  Mean bioavailability ratio (90% confidence interval) for AUC relative to controls: 0.9953 (0.6153-1.6100)
  Mean bioavailability ratio (90% confidence interval) for Cmax relative to controls: 1.4818
[1]; [6]
  Mean bioavailability ratio (90% confidence interval) for AUC relative to controls: 0.9445 (0.5839-1.5279)
[1]; [7]
  Mean bioavailability ratio (90% confidence interval) for AUC relative to controls: 1.3862 (0.8569-2.2423)
[1]; Healthy Controls
  AUC in plasma (mean, untransformed): 19.76 ng·h/mL
  AUCT in plasma (mean, untransformed): 14.95 ng·h/mL
  Cmax in plasma (mean, untransformed): 0.70 ng/mL
  Ke, terminal elimination rate constant in plasma (mean): 0.0449
  Tmax in plasma (median): 1.5 h
  t½, terminal elimination half-life in plasma (mean): 22.20 h
[1]; Mild Impairment
  AUC in plasma (mean, untransformed): 18.57 ng·h/mL
  AUCT in plasma (mean, untransformed): 14.26 ng·h/mL
  Cmax in plasma (mean, untransformed): 0.99 ng/mL
  Ke, terminal elimination rate constant in plasma (mean): 0.0451
  Tmax in plasma (median): 1.5 h
  t½, terminal elimination half-life in plasma (mean): 18.04 h
[1]; Moderate Impairment
  AUC in plasma (mean, untransformed): 17.64 ng·h/mL
  AUCT in plasma (mean, untransformed): 11.70 ng·h/mL
  Cmax in plasma (mean, untransformed): 0.76 ng/mL
  Ke, terminal elimination rate constant in plasma (mean): 0.0312
  Tmax in plasma (median): 2.5 h
  t½, terminal elimination half-life in plasma (mean): 27.82 h
[1]; Severe Impairment
  AUC in plasma (mean, untransformed): 32.04 ng·h/mL
  AUCT in plasma (mean, untransformed): 26.48 ng·h/mL
  Cmax in plasma (mean, untransformed): 0.99 ng/mL
  Ke, terminal elimination rate constant in plasma (mean): 0.0349
  Tmax in plasma (median): 2.0 h
  t½, terminal elimination half-life in plasma (mean): 26.53 h
[2]; severe renal impairment
  Mean percentage of the administered dose excreted in the urine: 0.16%
  Mean urinary elimination half-life: 34.4 h
[2]; healthy controls
  Mean urinary elimination half-life: 22.8 h
  Mean (SD) Ratio of Metabolite/Parent Excreted in Urine: 0.85 (0.27)
  Mean (SD) Percent of Dose Recovered in Urine (0-120 hours): 0.62 (0.28) %
[2]; mild renal impairment
  Mean urinary elimination half-life: 19.6 h
[2]; moderate renal impairment
  Mean urinary elimination half-life: 22.4 h
[2]; [8]
  Mean (SD) Ratio of Metabolite/Parent Excreted in Urine: 0.73 (0.45)
  Mean (SD) Percent of Dose Recovered in Urine (0-120 hours): 0.49 (0.15) %
[2]; [9]
  Mean (SD) Ratio of Metabolite/Parent Excreted in Urine: 0.41 (0.22)
  Mean (SD) Percent of Dose Recovered in Urine (0-120 hours): 0.26 (0.14) %
[2]; [10]
  Mean (SD) Ratio of Metabolite/Parent Excreted in Urine: 0.47 (0.42)
  Mean (SD) Percent of Dose Recovered in Urine (0-120 hours): 0.16 (0.11) %
[3]
  AUC/wt vs. CLCR: R-square: 0.1222
  AUC/wt vs. CLCR: Slope: −0.0011
  AUC vs. CLCR: R-square: 0.0977
  AUC vs. CLCR: Slope: −0.1387
[4]
  Relation between pain relief and blood plasma level: there is a correlation

## CN1CC[C@]23c4c5ccc(O[C@@H]6O[C@H](C(=O)O)[C@@H](O)[C@H](O)[C@H]6O)c4O[C@H]2C(=O)CC[C@@]3(O)[C@H]1C5 [Oxymorphone-3-glucuronide, oxymorphone-3-glucuronide]
[1]; EN3202 20 mg, healthy controls
  Mean plasma metabolite:oxymorphone ratio of AUC values (molar units): 94.1
[1]; [5]
  Mean plasma metabolite:oxymorphone ratio of AUC values (molar units): 132.3
  Mean bioavailability ratio (90% confidence interval) for AUC relative to controls: 1.7960 (1.3071-2.4677)
  Mean bioavailability ratio (90% confidence interval) for Cmax relative to controls: 1.5769 (1.2146-2.0473)
[1]; [6]
  Mean plasma metabolite:oxymorphone ratio of AUC values (molar units): 191.4
  Mean bioavailability ratio (90% confidence interval) for AUC relative to controls: 3.1196 (2.2704-4.2863)
  Mean bioavailability ratio (90% confidence interval) for Cmax relative to controls: 1.9830 (1.5274-2.5745)
[1]; [7]
  Mean plasma metabolite:oxymorphone ratio of AUC values (molar units): 505.6
  Mean bioavailability ratio (90% confidence interval) for AUC relative to controls: 9.0701 (6.6013-12.462)
  Mean bioavailability ratio (90% confidence interval) for Cmax relative to controls: 3.1422 (2.4202-4.0795)
[1]; EN3202 20 mg, subjects with creatinine clearance values, 30 mL/min
  Mean increase in plasma AUC values relative to healthy controls: ~9.7 fold
[1]; Healthy Controls
  AUC in plasma (mean, untransformed): 2439.7 ng·h/mL
  AUCT in plasma (mean, untransformed): 2309.5 ng·h/mL
  Cmax in plasma (mean, untransformed): 170.1 ng/mL
  Tmax in plasma (median): 3.0 h
  t½, terminal elimination half-life in plasma (mean): 9.53 h
[1]; [11]
  AUC in plasma (mean, untransformed): 2440 ng·h/mL
  Cmax in plasma (mean, untransformed): 170 ng/mL
  t½, terminal elimination half-life in plasma (mean): 9.5 h
[1]; Mild Impairment
  AUC in plasma (mean, untransformed): 4468.6 ng·h/mL
  AUCT in plasma (mean, untransformed): 4330.7 ng·h/mL
  Cmax in plasma (mean, untransformed): 280.2 ng/mL
  Tmax in plasma (median): 3.5 h
  t½, terminal elimination half-life in plasma (mean): 10.23 h
[1]; Moderate Impairment
  AUC in plasma (mean, untransformed): 8129.7 ng·h/mL
  AUCT in plasma (mean, untransformed): 7959.9 ng·h/mL
  Cmax in plasma (mean, untransformed): 359.7 ng/mL
  Tmax in plasma (median): 4.5 h
  t½, terminal elimination half-life in plasma (mean): 11.10 h
[1]; Severe Impairment
  AUC in plasma (mean, untransformed): 23604.2 ng·h/mL
  AUCT in plasma (mean, untransformed): 22313.6 ng·h/mL
  Cmax in plasma (mean, untransformed): 547.7 ng/mL
  Tmax in plasma (median): 11.0 h
  t½, terminal elimination half-life in plasma (mean): 22.09 h
[1]; [12]
  AUC in plasma (mean, untransformed): 23604 ng·h/mL
  Cmax in plasma (mean, untransformed): 548 ng/mL
  t½, terminal elimination half-life in plasma (mean): 22.1 h
[2]; healthy controls
  Mean percentage of the administered dose excreted in the urine: 37.16%
  Mean urinary elimination half-life: 12.7 h
  Mean (SD) Ratio of Metabolite/Parent Excreted in Urine: 51.78 (16.89)
  Mean (SD) Percent of Dose Recovered in Urine (0-120 hours): 37.16 (14.94) %
[2]; severe renal impairment
  Mean percentage of the administered dose excreted in the urine: 38.35%
  Mean urinary elimination half-life: 36.6 h
[2]; mild renal impairment
  Mean urinary elimination half-life: 9.8 h
[2]; moderate renal impairment
  Mean urinary elimination half-life: 12.8 h
[2]; [8]
  Mean (SD) Ratio of Metabolite/Parent Excreted in Urine: 72.17 (48.36)
  Mean (SD) Percent of Dose Recovered in Urine (0-120 hours): 44.36 (8.72) %
[2]; [9]
  Mean (SD) Ratio of Metabolite/Parent Excreted in Urine: 70.62 (37.69)
  Mean (SD) Percent of Dose Recovered in Urine (0-120 hours): 38.87 (8.63) %
[2]; [10]
  Mean (SD) Ratio of Metabolite/Parent Excreted in Urine: 112.44 (40.45)
  Mean (SD) Percent of Dose Recovered in Urine (0-120 hours): 38.35 (13.10) %
[3]
  AUC/wt vs. CLCR: R-square: 0.4911
  AUC/wt vs. CLCR: Slope: −1.4140
  AUC vs. CLCR: R-square: 0.4976
  AUC vs. CLCR: Slope: −221.43
